Assay results from patent US9980943B2, “Methods of treating muscular dystrophy” (BOARD OF REGENTS OF THE NEVADA SYSTEM OF HIGHER EDUCATION, …, priority 2013, dated 2018).

Tests used:
Assay type in all cases: cell-based, mouse
[1] = system: α7 integrin (LacZ reporter in α7βgal+/− myoblasts); assay: Myoblast α7+/LacZ integrin FDG assay (Burkin assay in myoblasts, 96-well); settings: 96-well; for Burkin Assay in Myoblasts, value relative to DMSO: SU9516 analogs, N=3-6; for Burkin Assay in Myoblasts, signal relative to DMSO: α7+/LacZ myoblasts
[2] = system: α7 integrin (LacZ reporter in α7+/LacZ myotubes); assay: Myotube α7 integrin FDG assay (Burkin assay in myotubes, 96-well); settings: for Burkin Assay in Myotubes, value relative to DMSO: SU9516 analogs, 96-well, N=3-6
[3] = system: β-galactosidase in CMV-LacZ C2C12 myoblasts; assay: CMV-LacZ secondary screen in C2C12 myoblasts (β-Gal stabilizing assay); settings: for CMV-LACZ in Myoblasts, value relative to DMSO: SU9516 analogs, C2C12 CMV-LacZ, N=2; for CMV-LACZ in Myoblasts (β-galactosidase activity relative to DMSO): CMV-LacZ C2C12 myoblasts
Outline: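 Stable CMV-LacZ C2C12 clone; six-point curve 0.5–40 μM; duplicates.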

[4] = system: β-galactosidase in CMV-LacZ C2C12 myotubes; assay: CMV-LacZ secondary screen in C2C12 myotubes (β-Gal stabilizing assay); settings: for CMV-LACZ in Myotubes, value relative to DMSO: SU9516 analogs, C2C12 CMV-LacZ, N=2; for CMV-LACZ in Myotubes, signal relative to DMSO: C2C12 CMV-LacZ myotubes, fold relative to DMSO
Outline: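 CMV-LacZ C2C12 line (clonal, FDG-screened); myoblasts/myotubes dosed 0.5–40 μM (0.5, 1, 5, 10, 20, 40 μM); n=2 per point; β-gal stabilization read-out.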

COc1cc(OC)c(/C=C2/C(=O)Nc3ccccc32)c(OC)c1 [NCGC00015546-04]
Burkin Assay in Myoblasts, value relative to DMSO ([1]; 0.5 uM): 0.8923 | Burkin Assay in Myoblasts, value relative to DMSO ([1]; 1 uM): 0.9228 | Burkin Assay in Myoblasts, value relative to DMSO ([1]; 5 uM): 0.3771 | Burkin Assay in Myoblasts, value relative to DMSO ([1]; 10 uM): 0.214 | Burkin Assay in Myoblasts, value relative to DMSO ([1]; 20 uM): 0.1937 | Burkin Assay in Myoblasts, value relative to DMSO ([1]; 40 uM): 0.1497 | Burkin Assay in Myotubes, value relative to DMSO ([2]; 0.5 uM): 0.9443 | Burkin Assay in Myotubes, value relative to DMSO ([2]; 1 uM): 1.051 | Burkin Assay in Myotubes, value relative to DMSO ([2]; 5 uM): 0.8529 | Burkin Assay in Myotubes, value relative to DMSO ([2]; 10 uM): 0.8253 | Burkin Assay in Myotubes, value relative to DMSO ([2]; 20 uM): 0.7881 | Burkin Assay in Myotubes, value relative to DMSO ([2]; 40 uM): 0.7965 | CMV-LACZ in Myoblasts, value relative to DMSO ([3]; 0.5 uM): 1.1442 | CMV-LACZ in Myoblasts, value relative to DMSO ([3]; 5 uM): 1.4889 | CMV-LACZ in Myoblasts, value relative to DMSO ([3]; 10 uM): 1.2439 | CMV-LACZ in Myoblasts, value relative to DMSO ([3]; 20 uM): 0.8083 | CMV-LACZ in Myoblasts, value relative to DMSO ([3]; 40 uM): 0.5873 | CMV-LACZ in Myotubes, value relative to DMSO ([4]; 0.5 uM): 1.1555 | CMV-LACZ in Myotubes, value relative to DMSO ([4]; 1 uM): 1.1427 | CMV-LACZ in Myotubes, value relative to DMSO ([4]; 5 uM): 1.0553 | CMV-LACZ in Myotubes, value relative to DMSO ([4]; 10 uM): 1.1513 | CMV-LACZ in Myotubes, value relative to DMSO ([4]; 20 uM): 1.0230 | CMV-LACZ in Myotubes, value relative to DMSO ([4]; 40 uM): 1.0700

COc1cccc(C(=O)COc2ccc3ccc(=O)oc3c2)c1 [MLS000677675-01]
Burkin Assay in Myoblasts, signal relative to DMSO ([1]; 0.5 uM): 1.093 | Burkin Assay in Myoblasts, signal relative to DMSO ([1]; 1 uM): 1.061 | Burkin Assay in Myoblasts, signal relative to DMSO ([1]; 5 uM): 0.9873 | Burkin Assay in Myoblasts, signal relative to DMSO ([1]; 10 uM): 1.028 | Burkin Assay in Myoblasts, signal relative to DMSO ([1]; 20 uM): 1.004 | Burkin Assay in Myoblasts, signal relative to DMSO ([1]; 40 uM): 0.9554 | Burkin Assay in Myotubes, α7 integrin LacZ reporter signal relative to DMSO ([2]; 0.5 uM): 1.278 | Burkin Assay in Myotubes, α7 integrin LacZ reporter signal relative to DMSO ([2]; 1 uM): 1.205 | Burkin Assay in Myotubes, α7 integrin LacZ reporter signal relative to DMSO ([2]; 5 uM): 1.081 | Burkin Assay in Myotubes, α7 integrin LacZ reporter signal relative to DMSO ([2]; 10 uM): 1.044 | Burkin Assay in Myotubes, α7 integrin LacZ reporter signal relative to DMSO ([2]; 20 uM): 0.6675 | Burkin Assay in Myotubes, α7 integrin LacZ reporter signal relative to DMSO ([2]; 40 uM): 0.6873 | CMV-LACZ in Myoblasts (β-galactosidase activity relative to DMSO) ([3]; 0.5 uM): 1.0343 | CMV-LACZ in Myoblasts (β-galactosidase activity relative to DMSO) ([3]; 1 uM): 1.1214 | CMV-LACZ in Myoblasts (β-galactosidase activity relative to DMSO) ([3]; 5 uM): 0.9905 | CMV-LACZ in Myoblasts (β-galactosidase activity relative to DMSO) ([3]; 10 uM): 1.0373 | CMV-LACZ in Myoblasts (β-galactosidase activity relative to DMSO) ([3]; 20 uM): 1.0763 | CMV-LACZ in Myoblasts (β-galactosidase activity relative to DMSO) ([3]; 40 uM): 1.1578 | CMV-LACZ in Myotubes, signal relative to DMSO ([4]; 0.5 uM): 0.8619 | CMV-LACZ in Myotubes, signal relative to DMSO ([4]; 1 uM): 0.9962 | CMV-LACZ in Myotubes, signal relative to DMSO ([4]; 5 uM): 1.0578 | CMV-LACZ in Myotubes, signal relative to DMSO ([4]; 10 uM): 1.0091 | CMV-LACZ in Myotubes, signal relative to DMSO ([4]; 20 uM): 0.9918 | CMV-LACZ in Myotubes, signal relative to DMSO ([4]; 40 uM): 1.2494

O=C(O)COc1ccccc1/C=C1\C(=O)Nc2ccc(Br)cc21 [MLS001196427-01]
Burkin Assay in Myoblasts, value relative to DMSO ([1]; 0.5 uM): 1.02 | Burkin Assay in Myoblasts, value relative to DMSO ([1]; 1 uM): 1.033 | Burkin Assay in Myoblasts, value relative to DMSO ([1]; 5 uM): 0.9384 | Burkin Assay in Myoblasts, value relative to DMSO ([1]; 10 uM): 0.9777 | Burkin Assay in Myoblasts, value relative to DMSO ([1]; 20 uM): 0.8102 | Burkin Assay in Myoblasts, value relative to DMSO ([1]; 40 uM): 0.8763 | Burkin Assay in Myotubes, value relative to DMSO ([2]; 0.5 uM): 0.9194 | Burkin Assay in Myotubes, value relative to DMSO ([2]; 1 uM): 1.02 | Burkin Assay in Myotubes, value relative to DMSO ([2]; 5 uM): 1.022 | Burkin Assay in Myotubes, value relative to DMSO ([2]; 10 uM): 1.135 | Burkin Assay in Myotubes, value relative to DMSO ([2]; 20 uM): 0.7942 | Burkin Assay in Myotubes, value relative to DMSO ([2]; 40 uM): 0.9365 | CMV-LACZ in Myoblasts, value relative to DMSO ([3]; 0.5 uM): 0.7219 | CMV-LACZ in Myoblasts, value relative to DMSO ([3]; 1 uM): 1.0356 | CMV-LACZ in Myoblasts, value relative to DMSO ([3]; 5 uM): 0.9957 | CMV-LACZ in Myoblasts, value relative to DMSO ([3]; 10 uM): 1.1811 | CMV-LACZ in Myoblasts, value relative to DMSO ([3]; 20 uM): 0.7144 | CMV-LACZ in Myoblasts, value relative to DMSO ([3]; 40 uM): 0.9563 | CMV-LACZ in Myotubes, value relative to DMSO ([4]; 0.5 uM): 0.9363 | CMV-LACZ in Myotubes, value relative to DMSO ([4]; 1 uM): 1.0704 | CMV-LACZ in Myotubes, value relative to DMSO ([4]; 5 uM): 0.8423 | CMV-LACZ in Myotubes, value relative to DMSO ([4]; 10 uM): 0.9282 | CMV-LACZ in Myotubes, value relative to DMSO ([4]; 20 uM): 0.9918 | CMV-LACZ in Myotubes, value relative to DMSO ([4]; 40 uM): 0.9000

Nc1ncnc(NCc2ccccc2)c1[N+](=O)[O-] [MLS000698826-01]
Burkin Assay in Myoblasts, signal relative to DMSO ([1]; 0.5 uM): 1.019 | Burkin Assay in Myoblasts, signal relative to DMSO ([1]; 1 uM): 1.008 | Burkin Assay in Myoblasts, signal relative to DMSO ([1]; 5 uM): 1.246 | Burkin Assay in Myoblasts, signal relative to DMSO ([1]; 10 uM): 0.9598 | Burkin Assay in Myoblasts, signal relative to DMSO ([1]; 20 uM): 0.9937 | Burkin Assay in Myoblasts, signal relative to DMSO ([1]; 40 uM): 1.023 | Burkin Assay in Myotubes, α7 integrin LacZ reporter signal relative to DMSO ([2]; 0.5 uM): 1.008 | Burkin Assay in Myotubes, α7 integrin LacZ reporter signal relative to DMSO ([2]; 1 uM): 0.8718 | Burkin Assay in Myotubes, α7 integrin LacZ reporter signal relative to DMSO ([2]; 5 uM): 1.08 | Burkin Assay in Myotubes, α7 integrin LacZ reporter signal relative to DMSO ([2]; 10 uM): 0.9001 | Burkin Assay in Myotubes, α7 integrin LacZ reporter signal relative to DMSO ([2]; 20 uM): 0.9575 | Burkin Assay in Myotubes, α7 integrin LacZ reporter signal relative to DMSO ([2]; 40 uM): 0.7844 | CMV-LACZ in Myoblasts (β-galactosidase activity relative to DMSO) ([3]; 0.5 uM): 0.9942 | CMV-LACZ in Myoblasts (β-galactosidase activity relative to DMSO) ([3]; 1 uM): 0.9717 | CMV-LACZ in Myoblasts (β-galactosidase activity relative to DMSO) ([3]; 5 uM): 0.8824 | CMV-LACZ in Myoblasts (β-galactosidase activity relative to DMSO) ([3]; 10 uM): 0.9013 | CMV-LACZ in Myoblasts (β-galactosidase activity relative to DMSO) ([3]; 20 uM): 1.2944 | CMV-LACZ in Myoblasts (β-galactosidase activity relative to DMSO) ([3]; 40 uM): 1.2519 | CMV-LACZ in Myotubes, signal relative to DMSO ([4]; 0.5 uM): 1.2010 | CMV-LACZ in Myotubes, signal relative to DMSO ([4]; 1 uM): 1.0200 | CMV-LACZ in Myotubes, signal relative to DMSO ([4]; 5 uM): 1.1232 | CMV-LACZ in Myotubes, signal relative to DMSO ([4]; 10 uM): 0.9634 | CMV-LACZ in Myotubes, signal relative to DMSO ([4]; 20 uM): 1.0505 | CMV-LACZ in Myotubes, signal relative to DMSO ([4]; 40 uM): 1.0789
